Our source for the IC50 values is patent US8278345B2, “Inhibitors of glutaminyl cyclase” (Probiodrug AG, priority 2006, dated 2012).

Where two headings read alike, the source gives them in different places.

This assay has as its target hQC (Homo sapiens, UniProt Q16769). Nature of the assay: Inhibitor assay for glutaminyl cyclase activity (fluorometric, H-Gln-βNA / H-Gln-AMC). It is filed as biochemical. The essentials: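 Ki values came from fitting progress curves to a competitive inhibition model; rapid screens used 4 mM inhibitor with substrate at KM. QC activity was read at 30 °C via auxiliary pyroglutamyl aminopeptidase releasing βNA (0.2 mM H-Gln-βNA, 0.2 M Tris pH 8.0, 20 mM EDTA) or AMC (0.05 M Tris pH 8.0, 5 mM EDTA).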

Setting [1] is: compound from preparative synthesis, purified, read-out: IC50 hQC.

hQC, sequence (Q16769 29-361): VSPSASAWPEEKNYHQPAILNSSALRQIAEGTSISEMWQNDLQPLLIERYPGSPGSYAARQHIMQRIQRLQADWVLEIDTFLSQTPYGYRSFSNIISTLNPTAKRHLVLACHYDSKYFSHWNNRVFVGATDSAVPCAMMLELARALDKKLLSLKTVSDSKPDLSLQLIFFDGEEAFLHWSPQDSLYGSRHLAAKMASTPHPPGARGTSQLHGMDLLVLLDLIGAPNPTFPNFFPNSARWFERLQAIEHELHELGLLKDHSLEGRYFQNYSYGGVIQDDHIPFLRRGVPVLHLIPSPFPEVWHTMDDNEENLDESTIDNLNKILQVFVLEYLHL

For `CC1C(c2ccccc2)=C(O)C(=O)N1CCCn1ccnc1` (stereo not drawn) [Compound 90, 3-Hydroxy-1-(3-imidazol-1-yl-propyl)-5-methyl-4-phenyl-1,5-dihydro-pyrrol-2-one], under “read-out: IC50”, the 50% inhibitory concentration (IC50) was found to be 1300 nM. As for `O=C1C(O)=C(c2ccccc2)C(c2ccc(CO)o2)N1CCCn1ccnc1` (stereo not drawn) [Compound 91, 3-Hydroxy-5-(5-hydroxymethyl-furan-2-yl)-1-(3-imidazol-1-yl-propyl)-4-phenyl-1,5-dihydro-pyrrol-2-one], the IC50 (read-out: IC50) turned out to be 1300 nM. On to `O=C1C(O)=C(c2ccccc2)C(c2ccccc2)N1CCCn1ccnc1` (stereo not drawn) [Compound 92, 3-Hydroxy-1-(3-imidazol-1-yl-propyl)-4,5-diphenyl-1,5-dihydro-pyrrol-2-one], for which, for the setting “read-out: IC50”, the concentration for half-maximal inhibition (IC50) was found to be 3100 nM.

Turning to `O=C1C(O)=C(c2ccccc2)C(C2CCC=CO2)N1CCCn1ccnc1` (stereo not drawn) [Compound 93, 5-(3,4-Dihydro-2H-pyran-2-yl)-3-hydroxy-1-(3-imidazol-1-yl-propyl)-4-phenyl-1,5-dihydro-pyrrol-2-one], the IC50 reads like this: under setting [1], 1670 nM; (read-out: IC50) 40 nM.

With `O=C1C(O)=C(c2ccccc2)C(C2=CCCCC2)N1CCCn1ccnc1` (stereo not drawn) [Compound 94, 5-Cyclohex-1-enyl-3-hydroxy-1-(3-imidazol-1-yl-propyl)-4-phenyl-1,5-dihydro-pyrrol-2-one], the IC50 (read-out: IC50) was found to be 4900 nM.

With `Cc1ccc2c(C3C(c4ccccc4)=C(O)C(=O)N3CCCn3ccnc3)c[nH]c2c1` (stereo not drawn) [Compound 95, 3-Hydroxy-1-(3-imidazol-1-yl-propyl)-5-(6-methyl-1H-indol-3-yl)-4-phenyl-1,5-dihydro-pyrrol-2-one], the IC50 (read-out: IC50) is 40 nM. Still for that read-out and setting: then `O=C1C(O)=C(c2ccccc2)C(C(F)(F)F)N1CCCn1ccnc1` (stereo not drawn) [Compound 96, 3-Hydroxy-1-(3-imidazol-1-yl-propyl)-4-phenyl-5-trifluoromethyl-1,5-dihydro-pyrrol-2-one], with 400 nM; and `O=C1C(O)=C(c2ccccc2)C(c2c[nH]c3ccccc23)N1CCCn1ccnc1` (stereo not drawn) [Compound 97, 3-Hydroxy-1-(3-imidazol-1-yl-propyl)-5-(1H-indol-3-yl)-4-phenyl-1,5-dihydro-pyrrol-2-one], with 40 nM. The same measure, in the same setting: then `O=C1C(O)=C(c2ccccc2)C(c2ncc[nH]2)N1CCCn1ccnc1` (stereo not drawn) [Compound 98, 3-Hydroxy-5-(1H-imidazol-2-yl)-1-(3-imidazol-1-yl-propyl)-4-phenyl-1,5-dihydro-pyrrol-2-one], with 1300 nM; and `O=C1C(O)=C(c2ccccc2)C(Cc2ccccc2)N1CCCn1ccnc1` (stereo not drawn) [Compound 99, 5-Benzyl-3-hydroxy-1-(3-imidazol-1-yl-propyl)-4-phenyl-1,5-dihydro-pyrrol-2-one], with 40 nM. Take `O=C1C(O)=C(c2ccccc2)C(c2c(O)ccc3ccccc23)N1CCCn1ccnc1` (stereo not drawn) [Compound 100, 3-Hydroxy-5-(2-hydroxy-naphthalen-1-yl)-1-(3-imidazol-1-yl-propyl)-4-phenyl-1,5-dihydro-pyrrol-2-one]: the IC50 (read-out: IC50) worked out at 400 nM.

For `O=C1C(O)=C(c2ccccc2)C(c2ccccn2)N1CCCn1ccnc1` (stereo not drawn) [Compound 101, 3-Hydroxy-1-(3-imidazol-1-yl-propyl)-4-phenyl-5-pyridin-2-yl-1,5-dihydro-pyrrol-2-one], the IC50 (read-out: IC50) is 400 nM. Take `O=C1C(O)=C(c2ccccc2)C(c2ccncc2)N1CCCn1ccnc1` (stereo not drawn) [Compound 102, 3-Hydroxy-1-(3-imidazol-1-yl-propyl)-4-phenyl-5-pyridin-4-yl-1,5-dihydro-pyrrol-2-one]: the IC50 (read-out: IC50) was 8500 nM.

For `O=C1C(O)=C(c2ccccc2)C(c2cccs2)N1CCCn1ccnc1` (stereo not drawn) [Compound 103, 3-Hydroxy-1-(3-imidazol-1-yl-propyl)-4-phenyl-5-thiophen-2-yl-1,5-dihydro-pyrrol-2-one], the IC50 (read-out: IC50) amounted to 1300 nM.

For the compound `O=C1C(O)=C(c2ccccc2)C(CO)N1CCCn1ccnc1` (stereo not drawn) [Compound 104, 3-Hydroxy-5-hydroxymethyl-1-(3-imidazol-1-yl-propyl)-4-phenyl-1,5-dihydro-pyrrol-2-one], under “read-out: IC50”, the half-maximal inhibitory concentration (IC50) stood at 40 nM.

On to `O=C1C(O)=C(c2ccccc2)C(C2CC2)N1CCCn1ccnc1` (stereo not drawn) [Compound 105, 5-Cyclopropyl-3-hydroxy-1-(3-imidazol-1-yl-propyl)-4-phenyl-1,5-dihydro-pyrrol-2-one], for which the IC50 (read-out: IC50) came out at 400 nM. Still for that read-out and setting: then `O=C1C(O)=C(c2ccccc2)C(c2ccco2)N1CCCn1ccnc1` (stereo not drawn) [Compound 106, 5-Furan-2-yl-3-hydroxy-1-(3-imidazol-1-yl-propyl)-4-phenyl-1,5-dihydro-pyrrol-2-one], with 40 nM. Regarding `CCCCC1C(c2ccccc2)=C(O)C(=O)N1CCCn1ccnc1` (stereo not drawn) [Compound 107, 5-Butyl-3-hydroxy-1-(3-imidazol-1-yl-propyl)-4-phenyl-1,5-dihydro-pyrrol-2-one], the IC50 came out at 524 nM under setting [1] and 40 nM (read-out: IC50). For the compound `CCC1C(c2ccccc2)=C(O)C(=O)N1CCCn1ccnc1` (stereo not drawn) [Compound 108, 5-Ethyl-3-hydroxy-1-(3-imidazol-1-yl-propyl)-4-phenyl-1,5-dihydro-pyrrol-2-one], the IC50 (read-out: IC50) amounted to 400 nM. With `O=C1C(O)=C(c2ccccc2)C(c2cccc(Cl)c2)N1CCCn1ccnc1` (stereo not drawn) [Compound 109, 5-(3-Chloro-phenyl)-3-hydroxy-1-(3-imidazol-1-yl-propyl)-4-phenyl-1,5-dihydro-pyrrol-2-one], the IC50 (read-out: IC50) amounted to 400 nM. Consider `O=C1C(O)=C(c2ccccc2)C(c2ccccc2F)N1CCCn1ccnc1` (stereo not drawn) [Compound 110, 5-(2-Fluoro-phenyl)-3-hydroxy-1-(3-imidazol-1-yl-propyl)-4-phenyl-1,5-dihydro-pyrrol-2-one], for which the IC50 under setting [1] came out at 740 nM and the IC50 (read-out: IC50) is 40 nM. Take `O=C1C(O)=C(c2ccccc2)C(c2ccc(O)cc2)N1CCCn1ccnc1` (stereo not drawn) [Compound 111, 3-Hydroxy-5-(4-hydroxy-phenyl)-1-(3-imidazol-1-yl-propyl)-4-phenyl-1,5-dihydro-pyrrol-2-one]: the IC50 (read-out: IC50) was 400 nM. Take `O=C1C(O)=C(c2ccccc2)C(c2cccc(O)c2)N1CCCn1ccnc1` (stereo not drawn) [Compound 112, 3-Hydroxy-5-(3-hydroxy-phenyl)-1-(3-imidazol-1-yl-propyl)-4-phenyl-1,5-dihydro-pyrrol-2-one]: the IC50 reads like this: under setting [1], 1960 nM; (read-out: IC50) 400 nM.

For `O=C1C(O)=C(c2c[nH]c3ccccc23)C(c2cc(Cl)cc(Cl)c2O)N1CCCn1ccnc1` (stereo not drawn) [Compound 113, 5-(3,5-Dichloro-2-hydroxy-phenyl)-3-hydroxy-1-(3-imidazol-1-yl-propyl)-4-(1H-indol-3-yl)-1,5-dihydro-pyrrol-2-one], for the setting “read-out: IC50”, the half-inhibitory concentration (IC50) came to 1300 nM. As for `Cc1ccc(C2C(c3c[nH]c4ccccc34)=C(O)C(=O)N2CCCn2ccnc2)cc1` (stereo not drawn) [Compound 114, 3-Hydroxy-1-(3-imidazol-1-yl-propyl)-4-(1H-indol-3-yl)-5-p-tolyl-1,5-dihydro-pyrrol-2-one], the IC50 under setting [1] was found to be 266 nM and the IC50 (read-out: IC50) was 40 nM. Take `CCCC1C(c2c[nH]c3ccccc23)=C(O)C(=O)N1CCCn1ccnc1` (stereo not drawn) [Compound 115, 3-Hydroxy-1-(3-imidazol-1-yl-propyl)-4-(1H-indol-3-yl)-5-propyl-1,5-dihydro-pyrrol-2-one]: the IC50 (read-out: IC50) is 400 nM. Same read-out and setting: then `O=C1C(O)=C(c2c[nH]c3ccccc23)C(c2cc[nH]n2)N1CCCn1ccnc1` (stereo not drawn) [Compound 116, 3-Hydroxy-1-(3-imidazol-1-yl-propyl)-4-(1H-indol-3-yl)-5-(1H-pyrazol-3-yl)-1,5-dihydro-pyrrol-2-one], with 400 nM; and `O=C1C(O)=C(c2c[nH]c3ccccc23)C(C(O)CO)N1CCCn1ccnc1` (stereo not drawn) [Compound 117, 5-(1,2-Dihydroxy-ethyl)-3-hydroxy-1-(3-imidazol-1-yl-propyl)-4-(1H-indol-3-yl)-1,5-dihydro-pyrrol-2-one], with 400 nM. The same measure, in the same setting: then `CC(C)/C=C/C1C(c2c[nH]c3ccccc23)=C(O)C(=O)N1CCCn1ccnc1` (stereo not drawn) [Compound 118, 3-Hydroxy-1-(3-imidazol-1-yl-propyl)-4-(1H-indol-3-yl)-5-(3-methyl-but-1-enyl)-1,5-dihydro-pyrrol-2-one], with 1300 nM; and `Cc1ccc(C2C(c3c[nH]c4ccccc34)=C(O)C(=O)N2CCCn2ccnc2)o1` (stereo not drawn) [Compound 119, 3-Hydroxy-1-(3-imidazol-1-yl-propyl)-4-(1H-indol-3-yl)-5-(5-methyl-furan-2-yl)-1,5-dihydro-pyrrol-2-one], with 400 nM. As to `O=C1C(O)=C(c2c[nH]c3ccccc23)C(c2ccc3[nH]ccc3c2)N1CCCn1ccnc1` (stereo not drawn) [Compound 120, 3-Hydroxy-1-(3-imidazol-1-yl-propyl)-5-(1H-indol-5-yl)-4-(1H-indol-3-yl)-1,5-dihydro-pyrrol-2-one], where the note is “read-out: IC50”, the IC50 came out at 40 nM. Regarding `COc1ccc(C2C(c3c[nH]c4ccccc34)=C(O)C(=O)N2CCCn2ccnc2)cc1` (stereo not drawn) [Compound 121, 3-Hydroxy-1-(3-imidazol-1-yl-propyl)-4-(1H-indol-3-yl)-5-(4-methoxy-phenyl)-1,5-dihydro-pyrrol-2-one], under “read-out: IC50”, the IC50 is 40 nM. Consider `O=C1C(O)=C(c2c[nH]c3ccccc23)C(c2ccccc2O)N1CCCn1ccnc1` (stereo not drawn) [Compound 122, 3-Hydroxy-5-(2-hydroxy-phenyl)-1-(3-imidazol-1-yl-propyl)-4-(1H-indol-3-yl)-1,5-dihydro-pyrrol-2-one], for which the IC50 (read-out: IC50) was determined as 40 nM.

For the compound `Cc1ccc(C2C(c3c[nH]c4ccccc34)=C(O)C(=O)N2CCCn2ccnc2)cc1C` (stereo not drawn) [Compound 123, 5-(3,4-Dimethyl-phenyl)-3-hydroxy-1-(3-imidazol-1-yl-propyl)-4-(1H-indol-3-yl)-1,5-dihydro-pyrrol-2-one], the concentration for half-maximal inhibition (IC50) was determined as 562 nM under setting [1] and 40 nM (read-out: IC50). As to `CCCCCC1C(c2c[nH]c3ccccc23)=C(O)C(=O)N1CCCn1ccnc1` (stereo not drawn) [Compound 124, 3-Hydroxy-1-(3-imidazol-1-yl-propyl)-4-(1H-indol-3-yl)-5-pentyl-1,5-dihydro-pyrrol-2-one], the IC50 (read-out: IC50) was found to be 400 nM. Same read-out and setting: in the case of `CC1C(c2c[nH]c3ccccc23)=C(O)C(=O)N1CCCn1ccnc1` (stereo not drawn) [Compound 125, 3-Hydroxy-1-(3-imidazol-1-yl-propyl)-4-(1H-indol-3-yl)-5-methyl-1,5-dihydro-pyrrol-2-one] it was 400 nM.

For orientation: IC50 means the concentration at which inhibition is half-maximal.
